Source: the supplement of paper PMC10307832

Columns and labels:
Test in all cases: relative viability (nuclei count vs DMSO), 5 days (fraction); higher = more cells survive
Entinostat + Linsitinib = compound: Nc1ccccc1NC(=O)c1ccc(CNC(=O)OCc2cccnc2)cc1 [Entinostat] + C[C@]1(O)C[C@@H](c2nc(-c3ccc4ccc(-c5ccccc5)nc4c3)c3c(N)nccn32)C1 [Linsitinib] (partner 1 µM)
Procedure, shortened: (§1)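 After 5 days of treatment, lung cancer cells in 1536-well plates were fixed and stained in a single step (final 0.05% Triton X-100, 1% formaldehyde, 1 ug/ml Hoechst) and their nuclei counted on 4× images. Treatment had been applied by pin tool the day after seeding as one drug alone or as a fixed anchor-drug dose with five library-drug doses (not always all listed) in √10 steps. Relative viability is the nuclei count of treated wells divided by that of vehicle wells, and values are medians of duplicate plates.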

SGI-1776 + Vorinostat = compound: CN1CCC(CNc2ccc3ncc(-c4cccc(OC(F)(F)F)c4)n3n2)CC1 [SGI-1776] + O=C(CCCCCCC(=O)Nc1ccccc1)NO [Vorinostat] (partner 1 µM)
Procedure, shortened: as §1

SGI-1776 + Linsitinib = compound: CN1CCC(CNc2ccc3ncc(-c4cccc(OC(F)(F)F)c4)n3n2)CC1 [SGI-1776] + C[C@]1(O)C[C@@H](c2nc(-c3ccc4ccc(-c5ccccc5)nc4c3)c3c(N)nccn32)C1 [Linsitinib] (partner 1 µM)
Procedure, shortened: as §1

SGI-1776 + Palbociclib = compound: CN1CCC(CNc2ccc3ncc(-c4cccc(OC(F)(F)F)c4)n3n2)CC1 [SGI-1776] + CC(=O)c1c(C)c2cnc(Nc3ccc(N4CCNCC4)cn3)nc2n(C2CCCC2)c1=O [Palbociclib] (partner 0.5 µM)
Procedure, shortened: as §1

Cell Line	relative viability (Entinostat + Linsitinib; first compound 0.02 µM)	relative viability (Entinostat + Linsitinib; first compound 0.06325 µM)	relative viability (Entinostat + Linsitinib; first compound 0.2 µM)	relative viability (Entinostat + Linsitinib; first compound 0.6325 µM)	relative viability (Entinostat + Linsitinib; first compound 2 µM)	relative viability (SGI-1776 + Vorinostat; first compound 0.08 µM)	relative viability (SGI-1776 + Vorinostat; first compound 0.8 µM)	relative viability (SGI-1776 + Vorinostat; first compound 2.53 µM)	relative viability (SGI-1776 + Vorinostat; first compound 8 µM)	relative viability (SGI-1776 + Linsitinib; first compound 0.08 µM)	relative viability (SGI-1776 + Linsitinib; first compound 0.8 µM)	relative viability (SGI-1776 + Linsitinib; first compound 2.53 µM)	relative viability (SGI-1776 + Linsitinib; first compound 8 µM)	relative viability (SGI-1776 + Palbociclib; first compound 0.08 µM)	relative viability (SGI-1776 + Palbociclib; first compound 0.8 µM)	relative viability (SGI-1776 + Palbociclib; first compound 2.53 µM)	relative viability (SGI-1776 + Palbociclib; first compound 8 µM)
NCI-H2347	0.987	0.984	0.903	0.408	0.349	0.598	0.622	0.588	0.496	0.995	0.992	0.966	0.865	0.414	0.455	0.44	0.426
SK-MES-1	1.11	1.05	1.23	0.983	0.69	1.23	1.04	1.11	0.734	1.09	1.09	1.14	1.03	0.379	0.315	0.327	0.241
NCI-H3122	1.02	1.03	1.07	1.08	0.868	1.15	0.917	1.07	1.07	1.04	0.983	1.16	1.08	0.206	0.2	0.173	0.165
NCI-H2085	0.871	0.865	0.788	0.574	0.499	0.841	0.865	0.763	0.753	0.994	0.957	0.902	0.757	0.491	0.482	0.468	0.444
PC-14	1.03	0.947	1.03	0.364	0.16	0.798	0.784	0.771	0.0624	1.06	0.965	0.938	0.802	0.573	0.448	0.436	0.0558
NCI-H1355	0.811	0.769	0.653	0.551	0.468	0.692	0.709	0.651	0.551	0.92	0.899	0.792	0.729	0.419	0.433	0.413	0.345
NCI-H727	0.306	0.344	0.35	0.255	0.0975	1.26	1.11	1.39	0.983	0.254	0.26	0.346	0.241	0.583	0.679	0.693	0.51
NCI-H1755	0.984	0.988	0.866	0.625	0.412	0.809	0.87	0.733	0.6	0.988	0.969	0.996	0.896	0.461	0.444	0.438	0.438
NCI-H1651	0.952	0.976	0.959	0.827	0.365	0.605	0.648	0.563	0.416	1.01	0.925	0.938	0.566	0.504	0.497	0.522	0.439
NCI-H647	1.23	1.14	0.932	0.327	0.121	0.539	0.61	0.604	0.322	1.29	1.16	0.978	0.739	0.506	0.367	0.319	0.258
NCI-H1944	1.12	1.19	1.23	0.554	0.357	0.584	0.646	0.553	0.477	1.15	1.31	1.21	1.05	0.346	0.312	0.303	0.279
LK-2	0.522	0.59	0.639	0.459	0.274	0.35	0.347	0.23	0.321	0.697	0.773	0.523	0.418	0.513	0.735	0.647	0.534
HCC-15	0.82	0.8	0.713	0.546	0.319	0.856	0.853	0.726	0.722	0.866	0.942	0.87	0.657	0.694	0.666	0.772	0.51
NCI-H838	1.11	1.1	1.11	0.594	0.279	0.794	0.697	0.676	0.522	1.03	0.982	1.02	0.684	0.228	0.222	0.204	0.155
HOP-62	0.743	1.01	0.711	0.403	0.266	0.765	0.67	0.648	0.544	0.823	0.877	1.23	1.04	0.548	0.428	0.423	0.379
NCI-H322M	0.885	1.04	0.883	0.89	0.65	0.882	0.926	0.846	0.707	1.01	1.04	0.933	0.774	0.515	0.508	0.476	0.451
NCI-H1395	1.1	1.13	1.01	0.885	0.594	0.887	0.755	0.558	0.47	1.19	1.08	0.938	0.746	0.615	0.588	0.611	0.457
NCI-H650	1.03	1.16	0.902	0.552	0.243	0.536	0.453	0.477	0.376	1.07	0.952	0.686	0.727	0.39	0.349	0.312	0.33
NCI-H661	0.481	0.769	0.678	0.725	0.624	0.822	0.805	0.871	0.829	0.74	0.643	0.545	0.502	0.415	0.399	0.412	0.338

Cell Line	relative viability (Entinostat + Linsitinib; first compound 0.02 µM)	relative viability (Entinostat + Linsitinib; first compound 0.06325 µM)	relative viability (Entinostat + Linsitinib; first compound 0.2 µM)	relative viability (Entinostat + Linsitinib; first compound 0.6325 µM)	relative viability (Entinostat + Linsitinib; first compound 2 µM)	relative viability (SGI-1776 + Vorinostat; first compound 0.08 µM)	relative viability (SGI-1776 + Vorinostat; first compound 0.8 µM)	relative viability (SGI-1776 + Vorinostat; first compound 2.53 µM)	relative viability (SGI-1776 + Vorinostat; first compound 8 µM)	relative viability (SGI-1776 + Linsitinib; first compound 0.08 µM)	relative viability (SGI-1776 + Linsitinib; first compound 0.8 µM)	relative viability (SGI-1776 + Linsitinib; first compound 2.53 µM)	relative viability (SGI-1776 + Linsitinib; first compound 8 µM)	relative viability (SGI-1776 + Palbociclib; first compound 0.08 µM)	relative viability (SGI-1776 + Palbociclib; first compound 0.8 µM)	relative viability (SGI-1776 + Palbociclib; first compound 2.53 µM)	relative viability (SGI-1776 + Palbociclib; first compound 8 µM)
NCI-H1734	0.908	0.985	0.987	0.916	0.817	0.809	0.913	0.801	0.662	0.919	0.895	0.935	0.749	0.387	0.339	0.345	0.283
EKVX	0.896	1.01	0.79	0.663	0.438	0.854	0.778	0.717	0.829	1.1	0.985	1.01	0.863	0.436	0.431	0.37	0.318
NCI-H520	1.03	1.05	1.09	0.897	0.412	0.711	0.779	0.797	0.561	1.17	1.02	1.05	0.848	0.267	0.219	0.191	0.16
LOU-NH91	0.911	1.02	0.95	0.816	0.714	0.976	1	0.845	0.644	1.06	1.03	0.955	0.666	0.647	0.552	0.536	0.537
COR-L23	0.829	0.763	0.748	0.416	0.132	0.581	0.387	0.41	0.327	0.886	0.965	0.864	0.668	0.282	0.309	0.32	0.247
NCI-H1437	0.92	0.565	0.298	0.151	0.113	0.84	0.857	0.798	0.702	1.03	1.03	0.952	0.452	0.311	0.315	0.257	0.261
EPLC-272H	1.2	1.22	0.697	0.627	0.405	0.468	0.505	0.545	0.249	1.18	1.19	1.34	1.11	0.32	0.336	0.354	0.226
NCI-H1666	0.874	0.783	0.476	0.498	0.313	0.999	0.971	0.957	1.01	0.856	0.83	0.772	0.493	0.64	0.66	0.614	0.663
HCC-44	0.676	0.474	0.357	0.27	0.197	1.16	1.05	1.12	1.01	0.73	0.709	0.644	0.641	0.976	0.995	0.953	0.919
RERF-LC-KJ	0.912	0.766	0.885	0.536	0.239	0.694	0.745	0.686	0.48	0.909	0.877	0.9	0.711	1.01	1.06	1.07	0.748
LU99A	0.505	0.552	0.479	0.394	0.348	0.463	0.531	0.56	0.443	0.573	0.54	0.545	0.432	0.415	0.441	0.407	0.381
PC-3 [JPC-3]	0.956	0.907	0.728	0.716	0.467	0.853	1.04	0.756	0.421	0.999	0.974	1.02	0.917	0.518	0.534	0.533	0.49
NCI-H2126	0.732	0.707	0.618	0.518	0.367	0.709	0.801	0.77	0.698	0.731	0.731	0.684	0.695	0.389	0.334	0.361	0.331
LXF-289	0.982	0.985	0.917	0.785	0.632	0.693	0.827	0.79	0.682	0.992	0.98	1.01	0.97	0.593	0.583	0.619	0.602
BEN	0.974	0.928	0.83	0.537	0.249	0.643	0.618	0.584	0.543	0.931	0.789	0.796	0.646	0.447	0.476	0.457	0.47
SW 1573	0.721	0.93	0.811	0.884	0.609	1.12	0.461	0.607	0.312	0.94	0.777	0.765	0.741	0.441	0.351	0.363	0.245
NCI-H1993	0.642	0.832	0.673	0.65	0.661	1.13	0.626	0.523	0.457	0.755	0.76	0.78	0.645	0.466	0.662	0.526	0.504
SK-LU-1	1.1	1.04	0.909	0.657	0.516	0.892	0.803	0.697	0.648	1.33	1.24	1.06	0.633	0.425	0.306	0.415	0.371
NCI-H460	0.664	0.685	0.378	0.0221	0.0142	0.887	0.688	0.717	0.715	0.683	0.859	0.785	0.459	0.243	0.133	0.121	0.151
